The experiment concerns TPM3-NTRK1-wt IC50 / primary target (e.g. CD74-ROS1-wt) IC50, Ba/F3 cells. In words: Cell assay TRKA selectivity (TRKA potency divided by primary target potency). It is filed as cell-based. The settings on record: for TPM3-NTRK1-wt/CD74-ROS1-G2032R: TRKA selectivity ratio: TPM3-NTRK1-wt IC50 / CD74-ROS1-G2032R IC50, Ba/F3 cells; for TPM3-NTRK1-wt/CD74-ROS1-wt: TRKA selectivity ratio: TPM3-NTRK1-wt IC50 / CD74-ROS1-wt IC50, Ba/F3 cells; for TPM3-NTRK1-wt/EML4-ALK-L1196M-G1202R: TRKA selectivity ratio: TPM3-NTRK1-wt IC50 / EML4-ALK-L1196M-G1202R IC50, Ba/F3 cells; for TPM3-NTRK1-wt/EML4-ALK-wt: TRKA selectivity ratio: TPM3-NTRK1-wt IC50 / EML4-ALK-wt IC50, Ba/F3 cells. The method in brief:
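Ratio of TRKA to primary-target cellular IC50 (e.g. TPM3-NTRK1-wt/CD74-ROS1-wt), grouped into bins A >30, B >10, C ≥1, D <1. Each IC50 came from engineered Ba/F3 fusion lines grown without IL-3, dosed for 72 h and read as CellTiter-Glo luminescence, with a four-parameter logistic fit.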

`CCn1ncc2c1-c1cnc(N)c(c1)O[C@H](C)c1cc(F)ccc1-n1nc(Cl)cc1C2` [Example 74, (19R)-10-chloro-3-ethyl-16-fluoro-19-methyl-20-oxa-3,4,11,12,23-pentaazapentacyclo[19.3.1.0^2,^6.0^8,^12.0^13,^18]pentacosa-1(24),2(6),4,8,10,13,15,17,21(25),22-decaen-22-amine]: the TPM3-NTRK1-wt/CD74-ROS1-G2032R entry is “A (bin A for very high selectivity, ratio>30-fold)”; the TPM3-NTRK1-wt/CD74-ROS1-wt result was “A (bin A for very high selectivity, ratio>30-fold)”; the TPM3-NTRK1-wt/EML4-ALK-L1196M-G1202R result is “B (bin B for high selectivity, ratio>10-fold)”; the TPM3-NTRK1-wt/EML4-ALK-wt result was “A (bin A for very high selectivity, ratio>30-fold)”.
Consider `CCn1ncc2c1-c1cnc(N)c(c1)OCc1cc(F)ccc1-n1nc(Cl)cc1C2` [Example 75, 10-chloro-3-ethyl-16-fluoro-20-oxa-3,4,11,12,23-pentaazapentacyclo[19.3.1.0^2,^6.0^8,^12.0^13,^18]pentacosa-1(24),2(6),4,8,10,13,15,17,21(25),22-decaen-22-amine], for which the TPM3-NTRK1-wt/CD74-ROS1-G2032R result is on record as “A (bin A for very high selectivity, ratio>30-fold)”; the TPM3-NTRK1-wt/CD74-ROS1-wt result is reported as “A (bin A for very high selectivity, ratio>30-fold)”; the TPM3-NTRK1-wt/EML4-ALK-L1196M-G1202R result is reported as “C (bin C for moderate selectivity, ratio≥1)”; the TPM3-NTRK1-wt/EML4-ALK-wt entry was “A (bin A for very high selectivity, ratio>30-fold)”.
With `CCn1nc(Cl)c2c1-c1cnc(N)c(c1)O[C@H](C)c1cc(F)ccc1-n1nc(C)cc1C2` [Example 76, (19R)-5-chloro-3-ethyl-16-fluoro-10,19-dimethyl-20-oxa-3,4,11,12,23-pentaazapentacyclo[19.3.1.0^2,^6.0^8,^12.0^13,^18]pentacosa-1(24),2(6),4,8,10,13,15,17,21(25),22-decaen-22-amine], the TPM3-NTRK1-wt/CD74-ROS1-G2032R result is recorded as “A (bin A for very high selectivity, ratio>30-fold)”; the TPM3-NTRK1-wt/CD74-ROS1-wt entry was “A (bin A for very high selectivity, ratio>30-fold)”; the TPM3-NTRK1-wt/EML4-ALK-L1196M-G1202R entry was “B (bin B for high selectivity, ratio>10-fold)”; the TPM3-NTRK1-wt/EML4-ALK-wt result is reported as “A (bin A for very high selectivity, ratio>30-fold)”.
With `CCn1ncc2c1-c1cnc(N)c(c1)O[C@H](C)c1cc(F)ccc1-c1ncoc1C2` [Example 77, (19R)-3-ethyl-16-fluoro-19-methyl-9,20-dioxa-3,4,11,23-tetraazapentacyclo[19.3.1.0^2,^6.0^8,^12.0^13,^18]pentacosa-1(24),2(6),4,8(12),10,13,15,17,21(25),22-decaen-22-amine], the TPM3-NTRK1-wt/CD74-ROS1-G2032R entry is “A (bin A for very high selectivity, ratio>30-fold)”; the TPM3-NTRK1-wt/CD74-ROS1-wt result is listed as “A (bin A for very high selectivity, ratio>30-fold)”; the TPM3-NTRK1-wt/EML4-ALK-L1196M-G1202R entry is “C (bin C for moderate selectivity, ratio≥1)”; the TPM3-NTRK1-wt/EML4-ALK-wt result was “A (bin A for very high selectivity, ratio>30-fold)”.
Turning to `CCn1nnc2c1-c1cnc(N)c(c1)O[C@H](C)c1cc(F)ccc1-c1nc(C)sc1C2` [Example 78, (19R)-3-ethyl-16-fluoro-10,19-dimethyl-20-oxa-9-thia-3,4,5,11,23-pentaazapentacyclo[19.3.1.0^2,^6.0^8,^12.0^13,^18]pentacosa-1(24),2(6),4,8(12),10,13,15,17,21(25),22-decaen-22-amine], the TPM3-NTRK1-wt/CD74-ROS1-G2032R entry was “A (bin A for very high selectivity, ratio>30-fold)”; the TPM3-NTRK1-wt/CD74-ROS1-wt entry is “A (bin A for very high selectivity, ratio>30-fold)”; the TPM3-NTRK1-wt/EML4-ALK-L1196M-G1202R result is “B (bin B for high selectivity, ratio>10-fold)”; the TPM3-NTRK1-wt/EML4-ALK-wt result is on record as “A (bin A for very high selectivity, ratio>30-fold)”.
As for `Cc1nn(CC(F)F)c2c1Cc1cn(C)nc1-c1ccc(F)cc1[C@@H](C)Oc1cc-2cnc1N` [Example 79, (19R)-3-(2,2-difluoroethyl)-16-fluoro-5,10,19-trimethyl-20-oxa-3,4,10,11,23-pentaazapentacyclo[19.3.1.0^2,^6.0^8,^12.0^13,^18]pentacosa-1(24),2(6),4,8,11,13,15,17,21(25),22-decaen-22-amine], the TPM3-NTRK1-wt/CD74-ROS1-G2032R result is “A (bin A for very high selectivity, ratio>30-fold)”; the TPM3-NTRK1-wt/CD74-ROS1-wt entry is “A (bin A for very high selectivity, ratio>30-fold)”; the TPM3-NTRK1-wt/EML4-ALK-L1196M-G1202R entry is “A (bin A for very high selectivity, ratio>30-fold)”; the TPM3-NTRK1-wt/EML4-ALK-wt entry is given as “A (bin A for very high selectivity, ratio>30-fold)”.
Turning to `CCn1ncc2c1-c1cnc(N)c(c1)O[C@H](C)c1cc(F)ccc1-n1nc(Br)cc1C2` [Example 80, (19R)-10-bromo-3-ethyl-16-fluoro-19-methyl-20-oxa-3,4,11,12,23-pentaazapentacyclo[19.3.1.0^2,^6.0^8,^12.0^13,^18]pentacosa-1(24),2(6),4,8,10,13,15,17,21(25),22-decaen-22-amine], the TPM3-NTRK1-wt/CD74-ROS1-G2032R result was “A (bin A for very high selectivity, ratio>30-fold)”; the TPM3-NTRK1-wt/CD74-ROS1-wt result is “A (bin A for very high selectivity, ratio>30-fold)”; the TPM3-NTRK1-wt/EML4-ALK-L1196M-G1202R entry is on record as “B (bin B for high selectivity, ratio>10-fold)”; the TPM3-NTRK1-wt/EML4-ALK-wt result was “A (bin A for very high selectivity, ratio>30-fold)”.
With `CCn1nc(C)c2c1-c1cnc(N)c(c1)O[C@H](C)c1cc(F)ccc1-c1nn(C)cc1C2` [Example 81, (19R)-3-ethyl-16-fluoro-5,10,19-trimethyl-20-oxa-3,4,10,11,23-pentaazapentacyclo[19.3.1.0^2,^6.0^8,^12.0^13,^18]pentacosa-1(24),2(6),4,8,11,13,15,17,21(25),22-decaen-22-amine], the TPM3-NTRK1-wt/CD74-ROS1-G2032R result is reported as “A (bin A for very high selectivity, ratio>30-fold)”; the TPM3-NTRK1-wt/CD74-ROS1-wt result is “A (bin A for very high selectivity, ratio>30-fold)”; the TPM3-NTRK1-wt/EML4-ALK-L1196M-G1202R entry is reported as “B (bin B for high selectivity, ratio>10-fold)”; the TPM3-NTRK1-wt/EML4-ALK-wt result is “A (bin A for very high selectivity, ratio>30-fold)”.
For `Cc1nc2c(s1)Cc1c(c(C#N)nn1C)-c1cnc(N)c(c1)O[C@H](C)c1cc(F)ccc1-2` [Example 82, (19R)-22-amino-16-fluoro-5,10,19-trimethyl-20-oxa-9-thia-4,5,11,23-tetraazapentacyclo[19.3.1.0^2,^6.0^8,^12.0^13,^18]pentacosa-1(24),2(6),3,8(12),10,13,15,17,21(25),22-decaene-3-carbonitrile], the TPM3-NTRK1-wt/CD74-ROS1-G2032R entry was “A (bin A for very high selectivity, ratio>30-fold)”; the TPM3-NTRK1-wt/CD74-ROS1-wt result is recorded as “A (bin A for very high selectivity, ratio>30-fold)”; the TPM3-NTRK1-wt/EML4-ALK-L1196M-G1202R result was “B (bin B for high selectivity, ratio>10-fold)”; the TPM3-NTRK1-wt/EML4-ALK-wt entry is “A (bin A for very high selectivity, ratio>30-fold)”.
Consider `C[C@H]1Oc2cc(cnc2N)-c2c(c(Cl)nn2CC(F)F)Cc2cn(C)nc2-c2ccc(F)cc21` [Example 83, (19R)-5-chloro-3-(2,2-difluoroethyl)-16-fluoro-10,19-dimethyl-20-oxa-3,4,10,11,23-pentaazapentacyclo[19.3.1.0^2,^6.0^8,^12.0^13,^18]pentacosa-1(24),2(6),4,8,11,13,15,17,21(25),22-decaen-22-amine], for which the TPM3-NTRK1-wt/CD74-ROS1-G2032R entry is given as “A (bin A for very high selectivity, ratio>30-fold)”; the TPM3-NTRK1-wt/CD74-ROS1-wt result is recorded as “A (bin A for very high selectivity, ratio>30-fold)”; the TPM3-NTRK1-wt/EML4-ALK-L1196M-G1202R result was “A (bin A for very high selectivity, ratio>30-fold)”; the TPM3-NTRK1-wt/EML4-ALK-wt entry was “A (bin A for very high selectivity, ratio>30-fold)”.
Consider `C[C@H]1Oc2cc(cnc2N)-c2c(cnn2CC(F)F)Cc2cc(C(F)(F)F)nn2-c2ccc(F)cc21` [Example 84, (19R)-3-(2,2-difluoroethyl)-16-fluoro-19-methyl-10-(trifluoromethyl)-20-oxa-3,4,11,12,23-pentaazapentacyclo[19.3.1.0^2,^6.0^8,^12.0^13,^18]pentacosa-1(24),2(6),4,8,10,13,15,17,21(25),22-decaen-22-amine], for which the TPM3-NTRK1-wt/CD74-ROS1-G2032R entry is recorded as “A (bin A for very high selectivity, ratio>30-fold)”; the TPM3-NTRK1-wt/CD74-ROS1-wt result is “A (bin A for very high selectivity, ratio>30-fold)”; the TPM3-NTRK1-wt/EML4-ALK-L1196M-G1202R result is reported as “C (bin C for moderate selectivity, ratio≥1)”; the TPM3-NTRK1-wt/EML4-ALK-wt result is reported as “A (bin A for very high selectivity, ratio>30-fold)”.
Take `C[C@H]1Oc2cc(cnc2N)-c2c(CC(F)F)noc2Cc2cn(C)nc2-c2ccc(F)cc21` [Example 85, (19R)-3-(2,2-difluoroethyl)-16-fluoro-10,19-dimethyl-5,20-dioxa-4,10,11,23-tetraazapentacyclo[19.3.1.0^2,^6.0^8,^12.0^13,^18]pentacosa-1(24),2(6),3,8,11,13,15,17,21(25),22-decaen-22-amine]: the TPM3-NTRK1-wt/CD74-ROS1-G2032R result was “A (bin A for very high selectivity, ratio>30-fold)”; the TPM3-NTRK1-wt/CD74-ROS1-wt entry is on record as “A (bin A for very high selectivity, ratio>30-fold)”; the TPM3-NTRK1-wt/EML4-ALK-L1196M-G1202R entry was “C (bin C for moderate selectivity, ratio≥1)”; the TPM3-NTRK1-wt/EML4-ALK-wt result is on record as “A (bin A for very high selectivity, ratio>30-fold)”.
Consider `CCn1ncc2c1-c1cnc(N)c(c1)O[C@H](C)c1cc(F)ccc1-c1nn(C(F)F)cc1C2` [Example 86, (19R)-10-(difluoromethyl)-3-ethyl-16-fluoro-19-methyl-20-oxa-3,4,10,11,23-pentaazapentacyclo[19.3.1.0^2,^6.0^8,^12.0^13,^18]pentacosa-1(24),2(6),4,8,11,13,15,17,21(25),22-decaen-22-amine], for which the TPM3-NTRK1-wt/CD74-ROS1-G2032R entry was “B (bin B for high selectivity, ratio>10-fold)”; the TPM3-NTRK1-wt/CD74-ROS1-wt entry is “A (bin A for very high selectivity, ratio>30-fold)”; the TPM3-NTRK1-wt/EML4-ALK-L1196M-G1202R entry is recorded as “D (bin D for low selectivity, ratio<1)”; the TPM3-NTRK1-wt/EML4-ALK-wt entry is recorded as “C (bin C for moderate selectivity, ratio≥1)”.
